Source: ChEMBL document CHEMBL3734742, “Discovery of 2-aryloxy-4-amino-quinazoline derivatives as novel protease-activated receptor 2 (PAR2) antagonists” (Bioorg Med Chem, 2015)
Blank lines part the entries; values can stand above or below the molecule they belong to. Activity calls are given as the source filed them. The calls are words filed in the database; no cut-off is given here.

Key:
Mus musculus [1] = assay: Antiinflammatory activity in C57BL/6 mouse assessed as reduction of LPS-induced sepsis at 15 mg/kg, po administered 1 hr before LPS challenge measured up to 60 hrs; format: functional; design: scale not given: the % may be the effect or the level left
Mus musculus [2] = assay: Antiinflammatory activity in C57BL/6 mouse assessed as reduction of LPS-induced sepsis at 30 mg/kg, po administered 1 hr before LPS challenge measured up to 60 hrs; format: functional; design: scale not given: the % may be the effect or the level left
RAW264.7 [3] = assay: Antiinflammatory activity in mouse RAW264.7 cells assessed as inhibition of LPS-induced TNFalpha expression compound pretreated for 1 hr followed by stimulation with LPS for 24 hrs by EIA; format: functional, cell-based
RAW264.7 [4] = assay: Inhibition of LPS-induced JNK phosphorylation in mouse RAW264.7 cells at 5 to 50 uM for 1 hr followed by stimulation with LPS for 5,10 or 15 mins by western blot analysis; format: cell-based
[5] = target: T1, Proteinase-activated receptor 2 (Mus musculus) (UniProt P55086); assay: Antagonist activity at protease-activated receptor 2 in LPS-stimulated mouse RAW264.7 cells assessed as inhibition of NF-kappaB activation compound pretreated for 1 hr followed by stimulation with LPS for 8 hrs by luciferase reporter gene assay; format: cell-based
T1 sequence (whole entry): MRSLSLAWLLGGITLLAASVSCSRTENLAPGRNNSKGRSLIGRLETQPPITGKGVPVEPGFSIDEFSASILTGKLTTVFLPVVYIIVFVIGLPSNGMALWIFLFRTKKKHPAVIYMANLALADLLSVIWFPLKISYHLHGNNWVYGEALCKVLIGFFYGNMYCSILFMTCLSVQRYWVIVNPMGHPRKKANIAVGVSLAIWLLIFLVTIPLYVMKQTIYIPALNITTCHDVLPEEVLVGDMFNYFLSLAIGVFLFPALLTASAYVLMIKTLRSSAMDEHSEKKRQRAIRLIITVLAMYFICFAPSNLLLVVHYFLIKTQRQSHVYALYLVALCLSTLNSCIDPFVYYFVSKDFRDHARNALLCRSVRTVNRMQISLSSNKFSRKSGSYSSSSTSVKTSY

RAW264.7 [6] = assay: Antiinflammatory activity in mouse RAW264.7 cells assessed as inhibition of LPS-induced IL-6 expression compound pretreated for 1 hr followed by stimulation with LPS for 24 hrs by EIA; format: functional, cell-based
RAW264.7 [7] = assay: Antiinflammatory activity in mouse RAW264.7 cells assessed as inhibition of LPS-induced iNOS mRNA level compound pretreated for 1 hr followed by stimulation with LPS for 24 hrs by qRT-PCR analysis; format: functional, cell-based
[8] = target: T1, Proteinase-activated receptor 2 (Mus musculus); assay: Antagonist activity at protease-activated receptor 2 in LPS-stimulated mouse RAW264.7 cells assessed as inhibition of AP-1 activation compound pretreated for 1 hr followed by stimulation with LPS for 8 hrs by luciferase reporter gene assay; format: cell-based
RAW264.7 [9] = assay: Antiinflammatory activity in mouse RAW264.7 cells assessed as inhibition of LPS-induced IL-1beta expression compound pretreated for 1 hr followed by stimulation with LPS for 24 hrs by EIA; format: functional, cell-based
RAW264.7 [10] = assay: Inhibition of LPS-induced Erk phosphorylation in mouse RAW264.7 cells at 5 to 50 uM for 1 hr followed by stimulation with LPS for 5,10 or 15 mins by western blot analysis; format: cell-based
RAW264.7 [11] = assay: Antiinflammatory activity in mouse RAW264.7 cells assessed as inhibition of LPS-induced COX2 mRNA expression at 5 to 50 uM for 1 hr followed by stimulation with LPS for 4 hrs QT-PCR analysis; format: functional, cell-based
RAW264.7 [12] = assay: Antiinflammatory activity in mouse RAW264.7 cells assessed as inhibition of LPS-induced PGE2 production at 5 to 50 uM for 1 hr followed by stimulation with LPS for 24 hrs […]; format: functional, cell-based
RAW264.7 [13] = assay: Cytotoxicity against mouse RAW264.7 cells assessed as cell viability at 3.125 to 200 uM after 24 hrs by MTT assay; format: cell-based; conditions: raw264.7, 24 h
RAW264.7 [14] = assay: Antiinflammatory activity in mouse RAW264.7 cells assessed as inhibition of LPS-induced COX2 expression at 5 to 50 uM for 1 hr followed by stimulation with LPS for 24 hrs by Western blot analysis; format: functional, cell-based
RAW264.7 [15] = assay: Antiinflammatory activity in mouse RAW264.7 cells assessed as inhibition of LPS-induced iNOS expression compound pretreated for 1 hr followed by stimulation with LPS for 24 hrs by Western blot analysis; format: functional, cell-based
[16] = target: Proteinase-activated receptor 2 (Homo sapiens) (UniProt P55085); assay: Antagonist activity at protease-activated receptor 2 (unknown origin) expressed in CHO-K1 cells assessed as inhibition of trypsin-induced calcium flux at 10 uM by FLIPR assay; format: functional, cell-based
[17] = target: Proteinase-activated receptor 2 (Homo sapiens) (UniProt P55085); assay: Antagonist activity at trypsin-induced protease-activated receptor 2 activation (unknown origin) expressed in CHO-K1 cells assessed as receptor internalization at 30 uM after 1 hr by immuno-fluorescence assay (reference value: 28%); format: cell-based; design: scale not given: the % may be the effect or the level left
Mus musculus [18] = assay: Antiinflammatory activity in C57BL/6 mouse assessed as reduction of LPS-induced sepsis at 7.5 mg/kg, po administered 1 hr before LPS challenge measured up to 60 hrs; format: functional; design: scale not given: the % may be the effect or the level left
RAW264.7 [19] = assay: Antiinflammatory activity in mouse RAW264.7 cells assessed as inhibition of LPS-induced NO production at 5 to 50 uM for 1 hr followed by stimulation with LPS for 24 hrs by Griess reaction; format: functional, cell-based
[20] = target: MAP kinase p38 (Mus musculus) (UniProt P47811+O08911+Q9WUI1+Q9Z1B7); assay: Inhibition of LPS-induced p38 phosphorylation in mouse RAW264.7 cells at 5 to 50 uM for 1 hr followed by stimulation with LPS for 5,10 or 15 mins by western blot analysis; format: cell-based
[21] = target: T2, Proteinase-activated receptor 2 (Homo sapiens, UniProt P55085); assay: Antagonist activity at protease-activated receptor 2 (unknown origin) expressed in CHO-K1 cells assessed as inhibition of trypsin-induced calcium flux by FLIPR assay; format: functional, cell-based
T2 sequence (P55085 whole entry): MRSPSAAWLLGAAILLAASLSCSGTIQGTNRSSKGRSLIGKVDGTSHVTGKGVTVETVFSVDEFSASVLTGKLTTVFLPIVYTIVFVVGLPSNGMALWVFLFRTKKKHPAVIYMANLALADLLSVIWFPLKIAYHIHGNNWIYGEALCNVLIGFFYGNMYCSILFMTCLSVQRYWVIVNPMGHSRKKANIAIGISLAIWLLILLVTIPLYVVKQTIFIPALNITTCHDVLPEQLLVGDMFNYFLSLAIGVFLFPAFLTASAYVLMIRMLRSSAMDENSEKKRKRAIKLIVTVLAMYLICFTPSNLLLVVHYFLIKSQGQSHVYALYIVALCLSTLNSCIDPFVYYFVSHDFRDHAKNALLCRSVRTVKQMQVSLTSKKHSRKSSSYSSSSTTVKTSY

RAW264.7 [22] = assay: Antiinflammatory activity in mouse RAW264.7 cells assessed as inhibition of LPS-induced PGE2 production at 3 uM for 1 hr followed by stimulation with LPS for 24 hrs […]; format: functional, cell-based
[23] = target: T2, Proteinase-activated receptor 2; assay: Antagonist activity at protease-activated receptor 2 (unknown origin)
[24] = target: T2, Proteinase-activated receptor 2; assay: Displacement of [3H]furoyl-LIGRL-NH2 from human protease-activated receptor 2 in NCTC-2544 cells; format: cell-based

SMILES: CS(=O)(=O)Nc1ccc([N+](=O)[O-])cc1OC1CCCCC1
inhibition (RAW264.7 [22]): Active

SMILES: COc1ccc(Oc2nc(NCc3occc3C)c3ccccc3n2)cc1
inhibition [16]: 23.1%

SMILES: Cc1ccoc1CNc1nc(Oc2cccc(Cl)c2)nc2ccccc12
inhibition [16]: inactive

SMILES: Cc1ccoc1CNc1nc(Oc2ccc(Cl)cc2Cl)nc2ccccc12
inhibition [16]: inactive

SMILES: Cc1ccoc1CNc1nc(Oc2ccc(Cl)c(Cl)c2)nc2ccc(F)cc12
inhibition [16]: < 10%

SMILES: CC[C@H](C)[C@H](NC(=O)[C@H](CC1CCCCC1)NC(=O)c1ccno1)C(=O)N1CCC2(C=Cc3ccccc32)CC1
IC50 [23]: 2 µM

SMILES: NCC[C@H](NC(=O)CNC(=O)Nc1ccc2c(c1)c(CN1CCCC1)cn2Cc1c(Cl)cccc1Cl)C(=O)N[C@H](Cc1ccccc1)C(=O)Nc1ccccc1
Ki [24]: 1.94 µM

SMILES: CCCCCNc1nc(NCc2ccco2)c2cc(F)ccc2n1
inhibition [16]: 73.2%
IC50 [21]: 0.69 µM

SMILES: NCCCC[C@H](NC(=O)CNC(=O)Nc1ccc2c(c1)c(CN1CCCC1)cn2Cc1c(Cl)cccc1Cl)C(=O)N[C@H](Cc1ccccc1)C(=O)NC(c1ccccc1)c1ccccc1
Ki [24]: 0.627 µM

Now from value to molecule, other results behind:

inhibition [5]: Dose-dependent effect
inhibition [8]: Dose-dependent effect
inhibition [16]: 47.7%
Activity [17]: 12%
inhibition [20]: inactive
IC50 [21]: 2.8 µM
SMILES: Cc1ccoc1CNc1nc(Oc2cc(Cl)cc(Cl)c2)nc2ccc(F)cc12
Activity (Mus musculus [1]): 60%
Activity (Mus musculus [2]): 20%
inhibition (RAW264.7 [3]): Dose-dependent effect
inhibition (RAW264.7 [4]): inactive
inhibition (RAW264.7 [6]): Dose-dependent effect
inhibition (RAW264.7 [7]): Dose-dependent effect
inhibition (RAW264.7 [9]): Dose-dependent effect
inhibition (RAW264.7 [10]): Active
inhibition (RAW264.7 [11]): Active
inhibition (RAW264.7 [12]): Active
Activity (RAW264.7 [13]): Non-toxic
inhibition (RAW264.7 [14]): Active
inhibition (RAW264.7 [15]): Dose-dependent effect
Activity (Mus musculus [18]): 80%
inhibition (RAW264.7 [19]): Active

inhibition [16]: inactive
SMILES: COc1ccc2nc(Oc3cc(Cl)cc(Cl)c3)nc(NCc3ccco3)c2c1

inhibition [16]: inactive
SMILES: Clc1ccc(Oc2nc(NCc3ccco3)c3ccccc3n2)cc1Cl

inhibition [16]: inactive
SMILES: COc1ccc2nc(Oc3cccc(Cl)c3)nc(NCc3ccco3)c2c1

inhibition [16]: < 10%
SMILES: Clc1ccc(Oc2nc(NCc3ccco3)c3cc(Cl)ccc3n2)c(Cl)c1

inhibition [16]: inactive
SMILES: Cc1ccc(CNc2nc(Oc3ccc(Cl)cc3Cl)nc3ccc(Cl)cc23)o1

inhibition [16]: inactive
SMILES: Clc1cc(Cl)cc(COc2nc(NCc3ccco3)c3ccccc3n2)c1

inhibition [16]: 33.1%
IC50 [21]: > 10 µM
SMILES: COc1ccc2nc(Oc3ccc(Cl)cc3Cl)nc(NCc3occc3C)c2c1

inhibition [16]: 16.5%
SMILES: Clc1ccc(COc2nc(NCc3ccco3)c3ccccc3n2)c(Cl)c1

inhibition [16]: inactive
SMILES: Cc1ccc(CNc2nc(Oc3ccc(Cl)c(Cl)c3)nc3ccc(F)cc23)o1

inhibition [16]: < 10%
Activity [17]: 24%
SMILES: Cc1ccc(CNc2nc(Oc3cc(Cl)cc(Cl)c3)nc3ccc(F)cc23)o1

inhibition [16]: inactive
SMILES: COc1ccc2nc(Oc3ccc(Cl)c(Cl)c3)nc(NCc3ccco3)c2c1
